Experiments:
[1] = system: HCC827 cells grafted into mice; assay: Tumor growth in HCC827-grafted mice; assay type: in vivo
Description: To model human EGFR mutated NSCLC, HCC827 cells were grafted into mice.
HCC827 or AZD9291-resistant HCC827 cancer or PC9 NSCLC cells (5×10^6) were subcutaneously injected into NOD/SCID mice (2 months old, n=6-10 for each group). […] The tumor volume was monitored twice a week for 4-8 weeks. All protocols involving animals were approved by the Research Animal Care Committee of City of Hope, in compliance with the Public Health Service Policy of the United States.

[2] = system: EGFR-TKI resistant HCC827 lung cancer cells; assay: Tumor growth of Tagrisso-resistant HCC827 cells grafted in mice; assay type: in vivo
Description: (§1) HCC827 or AZD9291-resistant HCC827 cancer or PC9 NSCLC cells (5×10^6) were subcutaneously injected into NOD/SCID mice (2 months old, n=6-10 for each group). After tumor size reaches approximately 100 mm^3, the mice were administered AZD9291 individually or in combination with triptolide using ALZET osmotic pump, which was implanted under the skin of the mice for a specific time period. The tumor volume was monitored twice a week for 4-8 weeks. All protocols involving animals were approved by the Research Animal Care Committee of City of Hope, in compliance with the Public Health Service Policy of the United States.

[3] = system: PC9 tumor; assay: PC9 tumor growth in grafted mice following Tagrisso resistance development; assay type: in vivo; settings: for tumor volume relative to its volume prior to the treatment (100%): PC9-grafted mice after 4 weeks Tagrisso, Tagrisso 2x dosage (Group 1), combination (Group 3)
Description: as §1

[4] = system: HCC827 cells; assay: Drug resistance assay (time to develop resistance, cell viability by cell counting); assay type: cell-based, human
[5] = system: HSP72; assay: HSP72 cellular expression; assay type: cell-based
Description: Triptolide by itself is a potent anti-tumor agent and functions by activating tumor suppressor protein p53 and blocking tumor promotor NF-κB.

[6] = system: PC9 tumors; assay: Tumor growth in PC9-grafted mice (Velcade study); assay type: in vivo; settings: same treatment setting as HCC827 study
Description: (§2) A separate experiment was completed using PC9-grafted mice in the same treatment setting as previously described.
as §1

[7] = Adverse effect observed in treated PC9-grafted mice; assay type: in vivo; settings: Velcade treatment
Description: as §2

[8] = system: HCC827-grafted mice; assay: Survival rates of HCC827-grafted mice; assay type: in vivo; set-up: dose or concentration left out as unconfirmed; settings: Tagrisso with or without co-administered Velcade (FIG. 3)
[9] = system: HSP72; assay: HSP72 protein level in Tagrisso-treated HCC827 cells; assay type: cell-based, human
Description: The inventors sought to maintain high levels of HSP72 while sustaining cancer treatment with TKIs.

[10] = HCC827-grafted mice, compared to untreated control (FIG. 2), Tagrisso at dose corresponding to recommended human dose, low dose of Velcade

C=CC(=O)Nc1cc(Nc2nccc(-c3cn(C)c4ccccc34)n2)c(OC)cc1N(C)CCN(C)C [Tagrisso, Osimertinib]
tumor growth [1, 10]: reduced tumor size and blocked tumor growth | tumor growth ([1]; non-resistant HCC827 cells (FIG. 5A)): tumor growth is inhibited | tumor growth ([2]; Tagrisso-resistant HCC827 grafted mice (FIG. 5A, 5B)): does not reduce tumor growth | tumor volume relative to its volume prior to the treatment (100%) ([3]; Triptolide (Group 2)): 190% | treatment time at which Tagrisso began to lose its inhibitory effect on the PC9 tumor ([3]; PC9-grafted mice, initial Tagrisso dosage): 4 weeks

C#Cc1cccc(Nc2ncnc3cc(OCCOC)c(OCCOC)cc23)c1 [Tarceva, Erlotinib]
time for HCC827 cells to develop resistance to Tarceva ([4]; Tarceva alone): about 30 days

CC(C)[C@]12O[C@H]1[C@@H]1O[C@]13[C@]1(O[C@H]1C[C@H]1C4=C(CC[C@@]13C)C(=O)OC4)[C@@H]2O [Triptolide]
HSP72 cellular expression [5]: may activate HSP72 cellular expression | time HCC827 cells maintained sensitivity to Tagrisso ([4]; Tagrisso in the presence of Triptolide, 70 day duration of the study): > 70 days | time HCC827 cells maintained sensitivity to Tarceva (resistance not observed) ([4]; Tarceva when also treated with Triptolide, 70 day duration of the study): > 70 days | sensitization of Tagrisso-resistant HCC827 to the EGFR-TKI ([2]; Tagrisso in the absence or presence of Triptolide (FIG. 5B)): sensitizes Tagrisso-resistant HCC827 cells to the EGFR-TKI | tumor volume relative to its volume prior to the treatment (100%) ([3]; Triptolide (Group 2)): 60% | duration of inhibitory effect on PC9 tumor growth ([3]; after 4 weeks Tagrisso pre-treatment, Tagrisso at 2x dosage (Group 1), Triptolide (Group 2)): at least 4 weeks

CC(C)C[C@H](NC(=O)[C@H](Cc1ccccc1)NC(=O)c1cnccn1)B(O)O [Velcade, Bortezomib]
PC9 tumor growth [6]: little inhibitory effect on PC9 tumor growth | adverse effect [7]: skin inflammation after one month | tumor growth [1, 10]: moderately inhibited tumor growth | survival of the mice [8]: did not improve survival of the mice | time HCC827 cells remained sensitive to Tagrisso ([4]; Tagrisso in the presence of Velcade, same concentration): > 60 days | HSP72 protein levels [9]: effectively maintains high levels of HSP72 protein

Source: patent US11672812B2, “Methods and compositions comprising tyrosine kinase inhibitor and triptolide for the treatment of cancer” (City of Hope, priority 2020, dated 2023)
